Assays:
Type in all cases: cell-based
[1] = test system: MOLT-4 cells; assay: CTG (CellTiter-Glo) cell viability assay, MOLT-4; details: Homo sapiens, MOLT-4, 72 h, MOLT-4, 3 day; read-out: CTG Cell Viability Assay - MOLT-4 3 day: Average external-IC50
Method in brief: (§1)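 Cells seeded at 10,000 per well, then exposed to a 9-point 1:3 dilution series from 10 µM top concentration (0.2% DMSO) for 3 days at 37 °C, 5% CO2. Viability measured by CellTiter-Glo luminescence; IC50 from a three-parameter logistic fit.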

[2] = target: T1, BCL-XL (Homo sapiens, UniProt Q07817); assay: BCL-XL degradation assay in MOLT-4 cells (ELISA, 6 h); details: for DC50: read-out: Bcl-xL ELISA in MOLT-4 degradation 6 h: External Abs-DC50
T1 construct: BCL-XL degradation results in MOLT-4 cells for compounds of the invention; endogenous in cells; host or cells: MOLT-4

[3] = test system: Caki-2 cells; assay: CTG (CellTiter-Glo) cell viability assay, Caki-2; details: Homo sapiens, CAKI-2, 72 h, Caki-2, 3-day; read-out: CTG Chempartner/PHA- Caki-2 3-day: Average external-IC50
Method in brief: as §1

T1 sequence (Q07817 whole entry): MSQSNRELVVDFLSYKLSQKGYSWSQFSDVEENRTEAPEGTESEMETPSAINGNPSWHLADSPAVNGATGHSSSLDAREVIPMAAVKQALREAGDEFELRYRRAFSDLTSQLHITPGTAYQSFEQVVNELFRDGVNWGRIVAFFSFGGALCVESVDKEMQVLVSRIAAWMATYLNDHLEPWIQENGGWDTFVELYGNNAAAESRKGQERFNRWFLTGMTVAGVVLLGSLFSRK

SMILES | IC50 [1] [nM] | Dmax [2] [%] | DC50 [2] [nM] | IC50 [3] [nM]
C#Cc1ccc([C@H](C)NC(=O)[C@@H]2C[C@@H](O)CN2C(=O)[C@@H](NC(=O)CCCCCC(=O)N2CCN(CC[C@H](CSc3ccccc3)Nc3ccc(S(=O)(=O)NC(=O)c4ccc(N5CCC([C@H](O)c6ccccc6-c6ccc(Cl)cc6)CC5)cc4)cc3S(=O)(=O)C(F)(F)F)CC2)C(C)(C)C)cc1 (single isomer, unassigned) [I-33] | 1000 to 3000 | 50 to 75 | 100 to 500 | > 30000
Cc1ncsc1-c1ccc([C@H](C)NC(=O)[C@@H]2C[C@@H](O)CN2C(=O)[C@@H](NC(=O)CCCCCCCC(=O)N2CCN(Cc3ccc(-c4ccc(Cl)cc4)c(CN4CCN(c5ccc(C(=O)NS(=O)(=O)c6ccc(N[C@H](CCN(C)C)CSc7ccccc7)c([N+](=O)[O-])c6)cc5)CC4)c3)CC2)C(C)(C)C)cc1 [I-8] | 100 to 1000 | 50 to 75 | 100 to 500 | > 30000
Cc1ncsc1-c1ccc([C@H](C)NC(=O)[C@@H]2C[C@@H](O)CN2C(=O)[C@@H](NC(=O)CCCCCC(=O)N2CCCN(CC[C@H](CSc3ccccc3)Nc3ccc(S(=O)(=O)NC(=O)c4ccc(N5CCN([C@@H](O)c6ccccc6-c6ccc(Cl)cc6)CC5)cc4)cc3S(=O)(=O)C(F)(F)F)CC2)C(C)(C)C)cc1 [I-124] | < 100 | 50 to 75 | < 10 | 10000 to 30000
Cc1ncsc1-c1ccc([C@H](C)NC(=O)[C@@H]2C[C@@H](O)CN2C(=O)[C@@H](NC(=O)CCCCCC(=O)N2CCN(CC[C@H](CSc3ccccc3)Nc3ccc(S(=O)(=O)NC(=O)c4ccc(N5CCN(CC6=C(c7ccc(Cl)cc7)CC(C)(C)CC6)CC5)cc4)cc3S(=O)(=O)C(F)(F)F)CC2)C(C)(C)C)cc1 [I-42] | < 100 | > 75 | 10 to 100 | 5000 to 10000
Cc1ncsc1-c1ccc([C@H](C)NC(=O)[C@@H]2C[C@@H](O)CN2C(=O)[C@@H](NC(=O)CCCCCC(=O)N2CCN(CC[C@H](CSc3ccccc3)Nc3ccc(S(=O)(=O)NC(=O)c4ccc(NC5CCOCC5)cc4)cc3S(=O)(=O)C(F)(F)F)CC2)C(C)(C)C)cc1 [I-39] | > 3000 | 50 to 75 | 100 to 500 | > 30000
Cc1ncsc1-c1ccc([C@H](C)NC(=O)[C@@H]2CC(O)CN2C(=O)[C@@H](NC(=O)CCCCCCC(=O)N2CCN(c3ccc(-c4ccc(Cl)cc4)c(CN4CCN(c5ccc(C(=O)NS(=O)(=O)c6ccc(N[C@H](CCN(C)C)CSc7ccccc7)c([N+](=O)[O-])c6)cc5)CC4)c3)CC2)C(C)(C)C)cc1 (stereo partly drawn) [I-4] | > 3000 | 50 to 75 | 500 to 1000 | > 30000
Cc1ncsc1-c1ccc([C@H](C)NC(=O)[C@@H]2C[C@@H](O)CN2C(=O)[C@@H](NC(=O)CCCCCCNC(=O)c2ccc(-c3ccc(Cl)cc3)c(CN3CCN(c4ccc(C(=O)NS(=O)(=O)c5ccc(N[C@H](CCN(C)C)CSc6ccccc6)c([N+](=O)[O-])c5)cc4)CC3)c2)C(C)(C)C)cc1 [I-11] | > 3000 | < 50 | 500 to 1000 | > 30000
Cc1ncsc1-c1ccc([C@H](C)NC(=O)[C@@H]2C[C@@H](O)CN2C(=O)[C@@H](NC(=O)CCCCCC(=O)N2CCN(CC[C@H](CSc3ccccc3)Nc3ccc(S(=O)(=O)NC(=O)c4ccc(N5CCC([C@@H](O)c6ccccc6-c6ccc(Cl)cc6)CC5)cc4)cc3S(=O)(=O)C(F)(F)F)CC2)C(C)(C)C)cc1 [I-28, (2S,4R)-1-((S)-2-(7-(4-((R)-3-((4-(N-(4-(4-((R)-(4′-chloro-[1,1′-biphenyl]-2-yl)(hydroxy)methyl)piperidin-1-yl)benzoyl)sulfamoyl)-2-((trifluoromethyl)sulfonyl)phenyl)amino)-4-(phenylthio)butyl)piperazin-1-yl)-7-oxoheptanamido)-3,3-dimethylbutanoyl)-4-hydroxy-N—((S)-1-(4-(4-methylthiazol-5-yl)phenyl)ethyl)pyrrolidine-2-carboxamide] | < 100 | > 75 | 10 to 100 | 10000 to 30000
Cc1ncsc1-c1ccc([C@H](C)NC(=O)[C@@H]2C[C@@H](O)CN2C(=O)[C@@H](NC(=O)CCCCC(=O)N2CCC3(CCN(CC[C@H](CSc4ccccc4)Nc4ccc(S(=O)(=O)NC(=O)c5ccc(N6CCN([C@@H](O)c7ccccc7-c7ccc(Cl)cc7)CC6)cc5)cc4S(=O)(=O)C(F)(F)F)CC3)CC2)C(C)(C)C)cc1 [I-126] | < 100 | 50 to 75 | 10 to 100 | < 5000
Cc1ncsc1-c1ccc([C@H](C)NC(=O)[C@@H]2C[C@@H](O)CN2C(=O)[C@@H](NC(=O)CCCCCCN2CCN(CC[C@H](CSc3ccccc3)Nc3ccc(S(=O)(=O)NC(=O)c4ccc(N5CCC([C@@H](O)c6ccccc6-c6ccc(Cl)cc6)CC5)cc4)cc3S(=O)(=O)C(F)(F)F)CC2)C(C)(C)C)cc1 [I-118] | 100 to 1000 | > 75 | 10 to 100 | > 30000
Cc1ncsc1-c1ccc([C@H](C)NC(=O)[C@@H]2C[C@@H](O)CN2C(=O)[C@@H](NC(=O)CCCCCC(=O)N2CCN(Cc3ccc(-c4ccc(Cl)cc4)c(CN4CCN(c5ccc(C(=O)NS(=O)(=O)c6ccc(N[C@H](CCN(C)C)CSc7ccccc7)c([N+](=O)[O-])c6)cc5)CC4)c3)CC2)C(C)(C)C)cc1 [I-7] | > 3000 | < 50 | 500 to 1000 | > 30000
Cc1ncsc1-c1ccc([C@H](C)NC(=O)[C@@H]2C[C@@H](O)CN2C(=O)[C@@H](NC(=O)CCCCCCN2CCN(CC[C@H](CSc3ccccc3)Nc3ccc(S(=O)(=O)NC(=O)c4ccc(N5CCN(Cc6ccccc6-c6ccc(Cl)cc6)CC5)cc4)cc3[N+](=O)[O-])CC2)C(C)(C)C)cc1 [I-13] | > 3000 | 50 to 75 | 500 to 1000 | > 30000

Reference: US20260092057A1, “BCL-XL/BCL-2 DEGRADERS AND USES THEREOF” (Kymera Therapeutics, Inc., priority 2022, published 2026)
